# Values of other authors, collected in PubChem BioAssay AID1259410 (Chemical Carcinogenesis Research Information System (CCRIS), 2018).
# System: rodent tumor promotion studies, tumor incidence
# Assay: CCRIS tumor promotion studies
# [1] = Carcinogen: 7,12-DIMETHYLBENZ(A)ANTHRACENE, Doses [Carcinogen]: TOP, Route [Carcinogen]: DERMAL, Route [Promoter]: DERMAL, Species: MOUSE, Strain/Sex: FEMALE
structure (smiles),measurement,setting,value
C=C/C=C\C1C2/C=C/CC(=O)O[C@@]34C[C@@H](C)[C@]5(O)C6C=C(C)C(=O)[C@@]6(O)CC(CO)=C[C@H]5[C@@H]3[C@@]4(C)COC(=O)C2C2C(/C=C/C=C/C=C/CCC)C12 (stereo partly specified),outcome,"Carcinogen: 7,12-DIMETHYLBENZ[A]ANTHRACENE, 57-97-6, Doses [Carcinogen]: 100 UG IN O.1 ML ACETONE, Doses [Promoter]: 0, 2 UG IN 0.1 ML OF METHANOL 2/WK FOR 16 WK BEGINNING 1 WK POST CARCINOGEN DOSE THEN 5 UG 2/WK FOR 13 WK (STUDY DURATIO, Route [Carcinogen]: DERMAL, Route [Promoter]: DERMAL, Species: MOUSE, Strain/Sex: CD-1/FEMALE",skin: tumor
Oc1cc(Cl)c(Cl)cc1Cl,outcome,[1],integumentary system (skin)
O=C(O)CN(CC(=O)O)CC(=O)O,outcome,"Carcinogen: N-BIS(2-HYDROXYPROPYL)NITROSAMINE, 53609-64-6, Doses [Carcinogen]: 0.2% IN DRINKING WATER FOR 2 WK, Doses [Promoter]: 0, 1% IN DIET FOR 30 WK BEGINNING POST CARCINOGEN DOSE (STUDY DURATION: 32 WK), Route [Carcinogen]: ORAL, Route [Promoter]: ORAL, Species: RAT, Strain/Sex: WISTAR/MALE",bladder: papilloma
same,outcome,"Carcinogen: N-BUTYL-N-(4-HYDROXYBUTYL)NITROSAMINE, 3817-11-6, Doses [Carcinogen]: 500 PPM IN DRINKING WATER FOR 4 WK, Doses [Promoter]: 0, 10000 PPM IN DIET BEGINNING POST CARCINOGEN TREATMENT AND CONTINUING FOR 28 WK (STUDY DURATION: 32 WK), Route [Carcinogen]: ORAL, Route [Promoter]: ORAL, Species: RAT, Strain/Sex: WISTAR/MALE","urinary bladder: papilloma, transitional cell carcinoma"
same,outcome,"Carcinogen: N-BUTYL-N-(4-HYDROXYBUTYL)NITROSAMINE, 3817-11-6, Doses [Carcinogen]: 500 PPM IN DRINKING WATER FOR 4 WK, Doses [Promoter]: 0, 10000 PPM IN DIET FOR 28 WK STARTING POST CARCINOGEN (STUDY DURATION: 32 WK), Route [Carcinogen]: ORAL, Route [Promoter]: ORAL, Species: RAT, Strain/Sex: WISTAR/MALE","bladder: papilloma, transitional cell carcinoma, squamous cell carcinoma"
same,outcome,"Carcinogen: N-ETHYL-N-(2-HYDROXYETHYL)NITROSAMINE, Doses [Carcinogen]: 1000 PPM IN DIET FOR 2 WK, Doses [Promoter]: 500, 10000 PPM IN DIET FOR 30 WK, Route [Carcinogen]: ORAL, Route [Promoter]: ORAL, Species: RAT, Strain/Sex: WISTAR/MALE",kidney: tubular cell tumor
same,outcome,"Carcinogen: N-ETHYL-N-HYDROXYETHYLNITROSAMINE, 13147-25-6, Doses [Carcinogen]: 0.1% IN DIET FOR 2 WK, Doses [Promoter]: 0, 1% IN DIET BEGINNING POST CARCINOGEN TREATMENT AND CONTINUING FOR 30 WK (STUDY DURATION: 32 WK), Route [Carcinogen]: ORAL, Route [Promoter]: ORAL, Species: RAT, Strain/Sex: F344/MALE",kidney: adenoma or carcinoma
same,outcome,"Carcinogen: N-ETHYL-N-HYDROXYETHYLNITROSAMINE, 13147-25-6, Doses [Carcinogen]: 1000 PPM IN DIET FOR 2 WK, Doses [Promoter]: 0, 500, 10000 PPM IN DIET FOR 30 WK STARTING POST CARCINOGEN (STUDY DURATION: 32 WK), Doses [Promoter]: 0, 500, 10000 PPM IN DIET FOR 30 WK STARTING POST CARCINOGEN (STUDY DURATION: 32 WK), Route [Carcinogen]: ORAL, Route [Promoter]: ORAL, Species: RAT, Strain/Sex: WISTAR/MALE",kidney: tubular cell tumor
same,outcome,"Carcinogen: Potassium bromate (7758-01-2), Doses [Carcinogen]: 60, 125, 250 and 500 ppm in drinking water for 13 wk (study duration 52 wk), Doses [Promoter]: 1% in diet for 37 wks starting 2 wk after end of carcinogen administration (study duration 52 wk), Route [Carcinogen]: Oral, Route [Promoter]: Oral, Species: Rat, Strain/Sex: F344 (15/Group)",kidney: significant increase in multiplicity of atypical tubules and of incidenc
C=CC(C)(C)c1ccc2c3c(c[nH]c13)C[C@@H](CO)NC(=O)[C@H](C(C)C)N2C,outcome,"Carcinogen: DIMETHYLBENZ[A]ANTHRACENE, 57-97-6, Doses [Carcinogen]: 100 UG IN 100 µL ACETONE APPLIED TO THE BACK ONCE, Doses [Promoter]: 5 UG IN 100 ML ACETONE APPLIED TO THE BACK 2/WK FOR 15 WK BEGINNING 1 WK POST CARCINOGEN DOSE THEN 10 UG 2/WK FOR 15 WK, Route [Carcinogen]: DERMAL, Route [Promoter]: DERMAL, Species: MOUSE, Strain/Sex: CD-1/FEMALE",skin: papilloma
CCCCCCCCCC1(CCCCCC(=O)OC2C(C)C3(O)C(C=C(CO)CC4(O)C(=O)C(C)=CC43)C3C(C)(C)C23OC(C)=O)OCC(C)(C)N1[O] (stereo unspecified),outcome,"Carcinogen: 7,12-DIMETHYLBENZ[A]ANTHRACENE, 57-97-6, Doses [Carcinogen]: 100 NMOL ONCE, Doses [Promoter]: 0, 5 NMOL 2/WK FOR 24 WK BEGINNING 1 WK POST CARCINOGEN DOSE (STUDY DURATION: 25 WK), Route [Carcinogen]: DERMAL, Route [Promoter]: DERMAL, Species: MOUSE, Strain/Sex: NMRI/FEMALE",skin: tumor
Nc1ncn[nH]1,outcome,"Carcinogen: N-BIS(2-HYDROXYPROPYL)NITROSAMINE, Doses [Carcinogen]: 70 MG/100 G BW 1/WK FOR 4 WK, Doses [Promoter]: 2000 PPM IN DIET FOR 12 WK BEGINNING 1 WK AFTER INITIATION, Route [Carcinogen]: SUBCUTANEOUS, Route [Promoter]: ORAL, Species: RAT, Strain/Sex: WISTAR/MALE","thyroid gland: adenoma, carcinoma"
CC(=O)[C@H]1[C@H](C#N)C[C@H]2[C@@H]3CC=C4C[C@@H](O)CC[C@]4(C)[C@H]3CC[C@@]21C,outcome,"Carcinogen: DIISOPROPANOLNITROSAMINE [53609-64-6], Doses [Carcinogen]: SINGLE DOSE OF 2.5 G/KG BW, Doses [Promoter]: 1000 PPM IN DIET BEGINNING 1 WK AFTER DIPN TREATMENT FOR 19 WKS (STUDY DURATION: 20 WKS), Route [Carcinogen]: SUBCUTANEOUS INJECTION, Route [Promoter]: DIET, Species: RAT, Strain/Sex: SPRAGUE-DAWLEY/MALE","thyroid: cystic adenoma, follicular adenoma, and follicular carcinoma"
Cc1ccc(O)cc1,outcome,[1],integumentary system (skin)
Oc1ccccc1Cl,outcome,[1],integumentary system (skin)
CCC(CC)C(=O)NC(N)=O,outcome,"Carcinogen: N-NITROSODIETHYLAMINE, 55-18-5, Doses [Carcinogen]: 75 MG IN STERILE SALINE ONCE, Doses [Promoter]: 0, 341 PPM IN DIET BEGINNING 2 WK POST CARCINOGEN DOSE AND CONTINUING FOR DURATION OF STUDY (STUDY DURATION: 78 WK), Route [Carcinogen]: INTRAPERITONEAL, Route [Promoter]: ORAL, Species: RAT, Strain/Sex: F344/MALE",liver: hepatocellular adenoma; kidney: renal tubular cell adenoma or carcinoma
CC(=O)OCC(COC(C)=O)OC(C)=O,outcome,"Carcinogen: 7,12-Dimethylbenz(a)anthracene, 57-97-6, Doses [Carcinogen]: 100 ug in 100 ul acetone once at 6 wk of age, Doses [Promoter]: 0, 85 mg, daily for 5 d/wk beginning 1 wk after carcinogen administration for 35 wk, study duration 36 wk, Route [Carcinogen]: Dermal, Route [Promoter]: Dermal, Species: Mouse, Strain/Sex: ICR/Female",skin: none
same,outcome,"Carcinogen: 7,12-Dimethylbenz(a)anthracene, 57-97-6, Doses [Carcinogen]: 100 ug in 100 ul acetone once at 6 wk of age, Doses [Promoter]: 0, 85 mg, twice daily for 5 d/wk beginning 1 wk after carcinogen administration for 35 wk, study duration 36 wk, Route [Carcinogen]: Dermal, Route [Promoter]: Dermal, Species: Mouse, Strain/Sex: ICR/Female",skin: none
CC(=O)Oc1ccccc1C(=O)O,outcome,"Carcinogen: N-(4-(5-NITRO-2-FURYL)-2-THIAZOLYL)FORMAMIDE, 24554-26-5, Doses [Carcinogen]: 0.2% IN DIET FOR 12 WK (TOTAL DOSE: 2.7 G), Doses [Promoter]: 0.5% IN DIET (TOTAL DOSE: 45.9 G) BEGINNING 2 D PRIOR TO SIMULTANEOUS ADMINISTRATION WITH CARCINOGEN FOR 12 WK THEN CONT, Route [Carcinogen]: ORAL, Route [Promoter]: ORAL, Species: RAT, Strain/Sex: F344/MALE",urinary bladder: transitional cell carcinoma
same,outcome,"Carcinogen: N-(4-(5-NITRO-2-FURYL)-2-THIAZOLYL)FORMAMIDE, 24554-26-5, Doses [Carcinogen]: 0.2% IN DIET FOR 12 WK (TOTAL DOSE: 3 G), Doses [Promoter]: 0.5% IN DIET (TOTAL DOSE: 39.9 G) BEGINNING 7 D POST LAST CARCINOGEN DOSE AND CONTINUING FOR DURATION OF STUDY (STUDY DU, Route [Carcinogen]: ORAL, Route [Promoter]: ORAL, Species: RAT, Strain/Sex: F344/MALE",urinary bladder: transitional cell carcinoma
Cc1cccc(C)c1N,outcome,"Carcinogen: N-BIS(2-HYDROXYPROPYL)NITROSAMINE) [53609-64-6], Doses [Carcinogen]: 2400 MG/KG BW ONCE (STUDY DURATION: 53 WK), Doses [Promoter]: 3000 PPM IN DIET FOR 52 WK BEGINNING 1 WK POST LAST CARCINOGEN DOSE (STUDY DURATION: 53 WK), Route [Carcinogen]: SUBCUTANEOUS, Route [Promoter]: ORAL, Species: RAT, Strain/Sex: F344/MALE",nasal cavity: carcinoma
